Measurements as given in ChEMBL document CHEMBL1150699, “Characterization of an anti-tuberculosis resin glycoside from the prairie medicinal plant Ipomoea leptophylla” (2003).
Active and inactive are the calls of the source. The rule behind the calls is not given here.

System: Mycobacterium tuberculosis
Assay: Antitubercular activity against Mycobacterium tuberculosis H37Rv at 6.25 ug/ml by BACTEC 460 radiometric assay
Type: functional

CCCCCCCCCCCC(=O)O[C@H]1[C@H](O[C@@H]2[C@@H](OC)[C@H]3OC(=O)CCCCCCCCC[C@H](CCCCC)O[C@@H]4O[C@H](C)[C@H](OC)[C@H](OC)[C@H]4O[C@@H]3O[C@H]2C)O[C@@H](C)[C@H](O[C@@H]2O[C@@H](C)[C@H](OC(=O)CC)[C@@H](OC)[C@H]2OC(=O)/C=C/c2ccccc2)[C@H]1O[C@@H]1O[C@H](COC)[C@@H](OC)[C@H](OC)[C@H]1OC
Activity: inactive

CCCCCCCCCCCC(=O)O[C@H]1[C@H](O[C@@H]2[C@@H](O)[C@H]3OC(=O)CCCCCCCCC[C@H](CCCCC)O[C@@H]4O[C@H](C)[C@H](O)[C@H](O)[C@H]4O[C@@H]3O[C@H]2C)O[C@@H](C)[C@H](O[C@@H]2O[C@@H](C)[C@H](OC(=O)CC)[C@@H](O)[C@H]2O)[C@H]1O[C@@H]1O[C@H](CO)[C@@H](O)[C@H](O)[C@H]1O
Activity: inactive

CCCCC[C@@H](CCCCCCCCCC(=O)O)O[C@@H]1O[C@H](C)[C@H](O)[C@H](O)[C@H]1O[C@@H]1O[C@@H](C)[C@H](O[C@@H]2O[C@@H](C)[C@H](O[C@@H]3O[C@@H](C)[C@H](O)[C@@H](O)[C@H]3O)[C@@H](O)[C@H]2O[C@@H]2O[C@H](CO)[C@@H](O)[C@H](O)[C@H]2O)[C@@H](O)[C@H]1O
Activity: inactive

CCCCCCCCCCCC(=O)O[C@H]1[C@H](O[C@@H]2[C@@H](O)[C@H]3OC(=O)CCCCCCCCC[C@H](CCCCC)O[C@@H]4O[C@H](C)[C@H](O)[C@H](O)[C@H]4O[C@@H]3O[C@H]2C)O[C@@H](C)[C@H](O[C@@H]2O[C@@H](C)[C@H](OC(=O)CC)[C@@H](O)[C@H]2OC(=O)/C=C/c2ccccc2)[C@H]1O[C@@H]1O[C@H](CO)[C@@H](O)[C@H](O)[C@H]1O
inhibition at 6.25 µg/mL: 13%
